# ChEMBL document CHEMBL3352542, “Synthesis, biological evaluation and molecular modeling study of 2-(1,3,4-thiadiazolyl-thio and 4-methyl-thiazolyl-thio)-quinazolin-4-ones as a new class of DHFR inhibitors” (Bioorg Med Chem Lett, 2014)
# Active and inactive are the calls of the source. The calls are words filed in the database; no cut-off is given here.
# Tests used:
# [1] = test system: UACC-257; test: Growth inhibition of human UACC257 cells at 10 uM after 48 hrs; assay type: functional
# [2] = test system: RPMI-8226; test: Growth inhibition of human RPMI8226 cells at 10 uM after 48 hrs; assay type: functional
# [3] = test system: Malme-3M; test: Growth inhibition of human MALME-3M cells at 10 uM after 48 hrs; assay type: functional
# [4] = test system: NCI-H226; test: Growth inhibition of human NCI-H226 cells at 10 uM after 48 hrs; assay type: functional
# [5] = test system: CCRF-CEM; test: Growth inhibition of human CCRF-CEM cells at 10 uM after 48 hrs; assay type: functional
# [6] = test system: Escherichia coli; test: Antimicrobial activity against Escherichia coli assessed as inhibition zone at 200 ug/disk after 24 hrs by disc-diffusion method; assay type: functional; details: read-out: IZ
# [7] = test system: Hs-578T; test: Growth inhibition of human Hs 578T cells at 10 uM after 48 hrs; assay type: functional
# [8] = test system: Bacillus subtilis; test: Antimicrobial activity against Bacillus subtilis assessed as inhibition zone at 200 ug/disk after 24 hrs by disc-diffusion method; assay type: functional; details: read-out: IZ
# [9] = test system: MOLT-4; test: (§1) Growth inhibition of human MOLT4 cells at 10 uM after 48 hrs; assay type: functional
# [10] = test system: NCI-H522; test: Growth inhibition of human NCI-H522 cells at 10 uM after 48 hrs; assay type: functional
# [11] = test system: HOP-62; test: Growth inhibition of human HOP62 cells at 10 uM after 48 hrs; assay type: functional
# [12] = test system: SK-MEL-28; test: Growth inhibition of human SK-MEL-28 cells at 10 uM after 48 hrs; assay type: functional, cell-based
# [13] = test system: OVCAR-4; test: Growth inhibition of human OVCAR4 cells at 10 uM after 48 hrs; assay type: functional
# [14] = test system: HT-29; test: Growth inhibition of human HT-29 cells at 10 uM after 48 hrs; assay type: functional
# [15] = test system: SNB-19; test: Growth inhibition of human SNB19 cells at 10 uM after 48 hrs; assay type: functional
# [16] = test system: MDA-MB-231; test: Growth inhibition of human MDA-MB-231 cells at 10 uM after 48 hrs; assay type: functional
# [17] = test system: UO-31; test: (§2) Growth inhibition of human UO31 cells at 10 uM after 48 hrs; assay type: functional
# [18] = test system: U-251; test: Growth inhibition of human U251 cells at 10 uM after 48 hrs; assay type: functional
# [19] = test system: HL-60(TB); test: Growth inhibition of human HL-60(TB) cells at 10 uM after 48 hrs; assay type: functional
# [20] = test system: SK-MEL-5; test: Growth inhibition of human SK-MEL-5 cells at 10 uM after 48 hrs; assay type: functional
# [21] = test system: SR; test: Growth inhibition of human SR cells at 10 uM after 48 hrs; assay type: functional
# [22] = test system: RXF 393; test: Growth inhibition of human RXF393 cells at 10 uM after 48 hrs; assay type: functional
# [23] = target: T1, Dihydrofolate reductase (Bos taurus, UniProt P00376); test: Inhibition of bovine liver DHFR
# T1 sequence (P00376 whole entry): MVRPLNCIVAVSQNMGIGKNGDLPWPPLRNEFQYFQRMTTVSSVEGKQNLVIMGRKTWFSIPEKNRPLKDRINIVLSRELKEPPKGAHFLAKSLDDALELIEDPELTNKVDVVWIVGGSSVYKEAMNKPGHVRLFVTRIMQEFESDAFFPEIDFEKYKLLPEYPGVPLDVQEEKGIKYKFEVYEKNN
# [24] = test system: HCT-15; test: Growth inhibition of human HCT15 cells at 10 uM after 48 hrs; assay type: functional
# [25] = test system: Pseudomonas aeruginosa; test: Antimicrobial activity against Pseudomonas aeruginosa assessed as inhibition zone at 200 ug/disk after 24 hrs by disc-diffusion method; assay type: functional; details: read-out: IZ
# [26] = test system: MDA-MB-435; test: Growth inhibition of human MDA-MB-435 cells at 10 uM after 48 hrs; assay type: functional
# [27] = test system: PC-3; test: Growth inhibition of human PC3 cells at 10 uM after 48 hrs; assay type: functional
# [28] = test system: MCF7; test: Growth inhibition of human MCF7 cells at 10 uM after 48 hrs; assay type: functional
# [29] = test system: HOP-92; test: (§3) Growth inhibition of human HOP92 cells at 10 uM after 48 hrs; assay type: functional
# [30] = test system: Staphylococcus aureus; test: Antimicrobial activity against Staphylococcus aureus assessed as inhibition zone at 200 ug/disk after 24 hrs by disc-diffusion method; assay type: functional; details: read-out: IZ
# [31] = test system: SF-539; test: Growth inhibition of human SF539 cells at 10 uM after 48 hrs; assay type: functional
# [32] = test system: T47D; test: Growth inhibition of human T47D cells at 10 uM after 48 hrs; assay type: functional
# [33] = test system: 786-0; test: Growth inhibition of human 786-0 cells at 10 uM after 48 hrs; assay type: functional
# [34] = test system: K562; test: Growth inhibition of human K562 cells at 10 uM after 48 hrs; assay type: functional
# [35] = test system: CAKI-1; test: Growth inhibition of human CAKI-1 cells at 10 uM after 48 hrs; assay type: functional
# [36] = test system: A549; test: Growth inhibition of human A549 cells at 10 uM after 48 hrs; assay type: functional
# [37] = test system: MDA-MB-468; test: Growth inhibition of human MDA-MB-468 cells at 10 uM after 48 hrs; assay type: functional
# [38] = test system: UACC-62; test: Growth inhibition of human UACC62 cells at 10 uM after 48 hrs; assay type: functional
# [39] = test system: HCT-116; test: Growth inhibition of human HCT116 cells at 10 uM after 48 hrs; assay type: functional
# [40] = test system: SF-295; test: (§4) Growth inhibition of human SF295 cells at 10 uM after 48 hrs; assay type: functional
# [41] = test system: A498; test: Growth inhibition of human A498 cells at 10 uM after 48 hrs; assay type: functional
# [42] = test system: KM12; test: Growth inhibition of human KM12 cells at 10 uM after 48 hrs; assay type: functional
# [43] = test system: Candida albicans; test: Antimicrobial activity against Candida albicans assessed as inhibition zone at 200 ug/disk after 24 hrs by disc-diffusion method; assay type: functional; details: read-out: IZ
# [44] = as §1; assay type: functional; details: MOLT-4, 48 h, read-out: GI
# [45] = as §2; assay type: functional; details: UO-31, 48 h, read-out: GI
# [46] = as §3; assay type: functional; details: HOP-92, 48 h, read-out: GI
# [47] = as §4; assay type: functional; details: SF-295, 48 h, read-out: GI
smiles,measurement,setting,value
COc1cc2nc(Sc3nnc(N)s3)n(-c3ccc(C)cc3)c(=O)c2cc1OC,growth inhibition (GI),[1],inactive
same,growth inhibition (GI),[2],inactive
same,growth inhibition (GI),[3],inactive
same,growth inhibition (GI),[4],inactive
same,growth inhibition (GI),[5],inactive
same,zone of inhibition at 200 µg/disc,[6],8 mm
same,growth inhibition (GI),[7],inactive
same,zone of inhibition at 200 µg/disc,[8],15 mm
same,growth inhibition (GI),[9],inactive
same,growth inhibition (GI),[10],inactive
same,growth inhibition (GI),[11],inactive
same,growth inhibition (GI),[12],inactive
same,growth inhibition (GI),[13],inactive
same,growth inhibition (GI),[14],inactive
same,growth inhibition (GI),[15],inactive
same,growth inhibition (GI),[16],inactive
same,growth inhibition (GI),[17],inactive
same,growth inhibition (GI),[18],inactive
same,growth inhibition (GI),[19],inactive
same,growth inhibition (GI),[20],inactive
same,growth inhibition (GI),[21],inactive
same,growth inhibition (GI),[22],inactive
same,IC50,[23],1000 nM
same,growth inhibition (GI),[24],inactive
same,zone of inhibition at 200 µg/disc,[25],8 mm
same,growth inhibition (GI),[26],inactive
same,growth inhibition (GI),[27],inactive
same,growth inhibition (GI),[28],inactive
same,growth inhibition (GI),[29],inactive
same,zone of inhibition at 200 µg/disc,[30],14 mm
same,growth inhibition (GI),[31],inactive
same,growth inhibition (GI),[32],inactive
same,growth inhibition (GI),[33],inactive
same,growth inhibition (GI),[34],inactive
same,growth inhibition (GI),[35],inactive
same,growth inhibition (GI),[36],inactive
same,growth inhibition (GI),[37],inactive
same,growth inhibition (GI),[38],inactive
same,growth inhibition (GI),[39],inactive
same,growth inhibition (GI),[40],inactive
same,growth inhibition (GI),[41],inactive
same,growth inhibition (GI),[42],inactive
same,zone of inhibition at 200 µg/disc,[43],8 mm
COc1ccc(-n2c(Sc3nnc(N)s3)nc3ccc(Cl)cc3c2=O)cc1,inhibition of growth at 10 µM,"[4]; NCI-H226, 48 h, read-out: GI",13.4%
same,zone of inhibition at 200 µg/disc,[6],8 mm
same,zone of inhibition at 200 µg/disc,[8],8 mm
same,inhibition of growth at 10 µM,[44],12%
same,inhibition of growth at 10 µM,[45],21.1%
same,inhibition of growth at 10 µM,[21]; read-out: GI,19.1%
same,IC50,[23],800 nM
same,zone of inhibition at 200 µg/disc,[25],8 mm
same,inhibition of growth at 10 µM,"[28]; MCF7, 48 h, read-out: GI",13.2%
same,inhibition of growth at 10 µM,[46],42.1%
same,zone of inhibition at 200 µg/disc,[30],8 mm
same,inhibition of growth at 10 µM,[32]; read-out: GI,12%
same,inhibition of growth at 10 µM,[47],11%
same,inhibition of growth at 10 µM,"[41]; A498, 48 h, read-out: GI",36.4%
same,zone of inhibition at 200 µg/disc,[43],8 mm
Cc1ccc2nc(Sc3nnc(N)s3)n(-c3ccc(Oc4ccccc4)cc3)c(=O)c2c1,growth inhibition (GI),[1],inactive
same,growth inhibition (GI),[2],inactive
same,growth inhibition (GI),[3],inactive
same,growth inhibition (GI),[4],inactive
same,growth inhibition (GI),[5],inactive
same,zone of inhibition at 200 µg/disc,[6],8 mm
same,growth inhibition (GI),[7],inactive
same,zone of inhibition at 200 µg/disc,[8],8 mm
same,growth inhibition (GI),[9],inactive
same,growth inhibition (GI),[10],inactive
same,growth inhibition (GI),[11],inactive
same,growth inhibition (GI),[12],inactive
same,growth inhibition (GI),[13],inactive
same,growth inhibition (GI),[14],inactive
same,growth inhibition (GI),[15],inactive
same,growth inhibition (GI),[16],inactive
same,growth inhibition (GI),[17],inactive
same,growth inhibition (GI),[18],inactive
same,growth inhibition (GI),[19],inactive
same,growth inhibition (GI),[20],inactive
same,growth inhibition (GI),[21],inactive
same,growth inhibition (GI),[22],inactive
same,IC50,[23],100 nM
same,growth inhibition (GI),[24],inactive
same,zone of inhibition at 200 µg/disc,[25],8 mm
same,growth inhibition (GI),[26],inactive
same,growth inhibition (GI),[27],inactive
same,growth inhibition (GI),[28],inactive
same,growth inhibition (GI),[29],inactive
same,zone of inhibition at 200 µg/disc,[30],8 mm
same,growth inhibition (GI),[31],inactive
same,growth inhibition (GI),[32],inactive
same,growth inhibition (GI),[33],inactive
same,growth inhibition (GI),[34],inactive
same,growth inhibition (GI),[35],inactive
same,growth inhibition (GI),[36],inactive
same,growth inhibition (GI),[37],inactive
same,growth inhibition (GI),[38],inactive
same,growth inhibition (GI),[39],inactive
same,growth inhibition (GI),[40],inactive
same,growth inhibition (GI),[41],inactive
same,growth inhibition (GI),[42],inactive
same,zone of inhibition at 200 µg/disc,[43],8 mm
